Data on three molecules can be found in patent EP2848615A1, “New pyrazole derivatives as CRAC channel modulators” (Almirall, S.A., priority 2013, dated 2015).

The subject of experiment [1] is Jurkat E6-1 cells. The experiment is described as follows: In vitro Assay of Cytokine Release from T Cells (PHA-stimulated IL-2, ELISA). It is filed as cell-based. The following applies: Homo sapiens, PHA 20 µg/ml, 20 hours, IL-2 by ELISA, read-out: Jurkat IL2 IC50. The method, then:
In vitro Assay of Cytokine Release from T Cells
Jurkat E6-1 cells were obtained from American Type Culture Collection (ATCC) and maintained in complete medium with 10% fetal bovine serum (FBS) at 37°C/5%CO2. Cells were plated in 100 µL of Dubelcco's Modified Eagle Medium (DMEM) with 1% FBS in a 96 well plate at a density of 1x10^6 cells/well and 50 µL of test compound was added. Cells were then stimulated by the addition of 50 µL of phytohemagglutinin (PHA) (final concentration 20 µg/ml) and incubated at 37°C/5%CO2 for 20 hours. On the following day, the supernatants were collected and assayed for IL-2 levels by ELISA according to the manufacturer's protocols. The IC50 value was calculated as the concentration at which 50% of secreted IL-2 in vehicle is inhibited.

The test system of experiment [2] is Jurkat E6-1 cells. The experiment is described as follows: Fluorescent Calcium Flux Assay (thapsigargin store depletion, FLIPR Calcium 5 dye). The class given is cell-based. As to conditions: Homo sapiens, Thapsigargin 10µM, 2mM final calcium concentration, read-out: Ca^2+ flux IC50. The procedure: Fluorescent Calcium Flux Assay
Jurkat E6-1 cells were obtained from ATCC (number TIB-152™) and maintained as ATCC recommend; in medium RPMI-1640 with 10% FBS at 37°C and 5% CO2.
Before the assay, Jurkat cells were grown at a density of 2 millions cells/ml in cell culture media (RPMI with 10% FBS) in a T-175 flask at 37°C and 5% CO2.
The day of the assay, cells were harvested by centrifugation (5 minutes at 1500 rpm) and the pellet were suspended in Ca^2+ free assay buffer (HBSS w/o Ca^2+ and Mg ^2+, 20mM Hepes and 1 mM MgCl2, pH 7.4) at a density of 5 million cells/ml.
Calcium depletion was initiated by the addition to the cell suspension of Thapsigarguin at a final assay concentration of 10µM. 20µl of the cellular suspension containing Thapsigargin (100.000 cells/well) were plated into 384 well plates (corning 3711) and incubated at RT for 15 minutes.
Test compounds were diluted in DMSO 100% to get a 10^-2M stock solution and serial dilutions 1/3 were performed in the same solvent. Then, 20µl of test compounds, diluted 75 times in Ca^2+ free assay buffer, were added to the cells and incubated at RT for 1h.
Once this incubation was completed, 5 µl of dye solution (FLIPR Calcium 5 Express Kit, Molecular Devices), prepared as Molecular Devices recommend, were added into the assay plates followed by an extra incubation period of 1 hour at room temperature. After the second incubation period, assay plates were placed into the FLIPR Tetra from Molecular Devices. Fluorescence was measured at a wavelength of 525nm after the dye excitation at 485nm. The initial baseline was measured during 20 seconds, and then 8µl of a 13mM Calcium solution in assay buffer were added (2mM final calcium concentration) except for basal wells, where assay buffer without calcium was added. At this time, changes in the cellular fluorescent were measured for an extra 80 seconds.
Peak and base line were taken for the calculation of the ratio (Peak/Base Line). Total, basal and compound well ratio values were used to calculate %Inhibition.
A general note: Calcium assays in cells follow changes in intracellular calcium, usually with a dye or a luminescent sensor.

On to `COc1ccc(OC)c(NC(=O)c2cc(-c3c(F)cccc3Cl)[nH]n2)c1` [Example 5, 5-(2-chloro-6-fluorophenyl)-N-(2,5-dimethoxyphenyl)-1H-pyrazole-3-carboxamide], for which the IC50 (commonly the concentration at which inhibition is half-maximal) in experiment [1] is 62 nM; in experiment [2], 135 nM.

For `Cn1nc(-c2ccccc2)cc1NC(=O)c1cc(-c2c(F)cccc2Cl)[nH]n1` [Example 6, 5-(2-chloro-6-fluorophenyl)-N-(1-methyl-3-phenyl-1H-pyrazol-5-yl)-1H-pyrazole-3-carboxamide], the IC50 worked out at 410 nM in experiment [1] and 559 nM in experiment [2].

Consider `Cn1nc(C(F)(F)F)cc1NC(=O)c1cc(-c2c(F)cccc2Cl)[nH]n1` [Example 1, 5-(2-chloro-6-fluorophenyl)-N-[1-methyl-3-(trifluoromethyl)-1H-pyrazol-5-yl]-1H-pyrazole-3-carboxamide], for which the IC50 in experiment [1] amounted to 130 nM; in experiment [2], 332 nM.
